Source: US10231954B2, “Neurodegenerative therapies” (LYTIX BIOPHARMA AS, priority 2014, dated 2019)
Like-named read-outs stand apart in the source and are kept apart here.

How the values were obtained:
Type in all cases: biochemical
[1] = target: CDK2-Cyclin A (Homo sapiens, UniProt P24941); assay: Kinase profiling CDK2-Cyclin A; settings: for remaining activity at 100 µM: read-out: residual kinase activity, CDK2-Cyclin A
Excerpt: (§1) Any value less that 25 is considered to be highly significant inhibition.

[2] = target: MARK1 (Homo sapiens, UniProt Q9P0L2); assay: Kinase profiling MARK1; settings: for remaining activity at 100 µM: read-out: residual kinase activity, MARK1
Excerpt: as §1

[3] = target: MARK2 (Homo sapiens, UniProt Q7KZI7); assay: Kinase profiling MARK2; settings: for remaining activity at 100 µM: read-out: residual kinase activity, MARK2
Excerpt: as §1

[4] = target: MELK (Homo sapiens, UniProt Q14680); assay: Kinase profiling MELK; settings: for remaining activity at 100 µM: read-out: residual kinase activity, MELK
Excerpt: as §1

[5] = target: EPH-A4 (Homo sapiens, UniProt P54764); assay: Kinase profiling EPH-A4; settings: for remaining activity at 100 µM: read-out: residual kinase activity, EPH-A4
Excerpt: as §1

[6] = target: T1, EPH-B2 (Homo sapiens, UniProt P29323); assay: Kinase profiling EPH-B2; settings: for remaining activity at 100 µM: read-out: residual kinase activity, EPH-B2
T1 sequence (P29323 19-1055): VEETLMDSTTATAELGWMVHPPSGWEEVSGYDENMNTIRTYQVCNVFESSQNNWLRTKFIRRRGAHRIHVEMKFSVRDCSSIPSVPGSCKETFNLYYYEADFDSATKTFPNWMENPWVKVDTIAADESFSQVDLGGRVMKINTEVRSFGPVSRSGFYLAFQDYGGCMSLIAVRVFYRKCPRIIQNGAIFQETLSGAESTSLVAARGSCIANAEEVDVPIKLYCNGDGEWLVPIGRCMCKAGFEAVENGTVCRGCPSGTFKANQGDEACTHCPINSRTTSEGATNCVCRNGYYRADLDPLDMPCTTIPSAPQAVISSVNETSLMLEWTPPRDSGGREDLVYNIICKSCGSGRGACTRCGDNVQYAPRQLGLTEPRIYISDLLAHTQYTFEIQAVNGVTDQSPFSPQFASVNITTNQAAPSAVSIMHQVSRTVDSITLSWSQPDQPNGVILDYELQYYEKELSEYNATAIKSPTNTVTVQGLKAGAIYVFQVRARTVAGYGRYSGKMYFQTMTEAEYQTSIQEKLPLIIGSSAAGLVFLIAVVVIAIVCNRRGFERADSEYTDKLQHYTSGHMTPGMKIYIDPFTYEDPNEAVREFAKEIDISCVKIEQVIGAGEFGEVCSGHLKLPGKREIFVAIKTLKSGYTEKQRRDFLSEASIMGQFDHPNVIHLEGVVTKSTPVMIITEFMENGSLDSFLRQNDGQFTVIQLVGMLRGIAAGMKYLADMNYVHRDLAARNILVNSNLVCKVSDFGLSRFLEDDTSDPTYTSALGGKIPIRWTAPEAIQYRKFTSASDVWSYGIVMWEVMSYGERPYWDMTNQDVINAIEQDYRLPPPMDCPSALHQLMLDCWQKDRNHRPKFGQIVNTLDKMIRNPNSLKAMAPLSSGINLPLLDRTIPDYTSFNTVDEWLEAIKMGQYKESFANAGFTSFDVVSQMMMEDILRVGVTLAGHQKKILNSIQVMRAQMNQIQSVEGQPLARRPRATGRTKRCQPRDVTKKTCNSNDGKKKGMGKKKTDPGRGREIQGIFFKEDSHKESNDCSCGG
Excerpt: as §1

[7] = target: T2, EPH-B4 (Homo sapiens, UniProt P54760); assay: Kinase profiling EPH-B4; settings: for remaining activity at 100 µM: read-out: residual kinase activity, EPH-B4
T2 sequence (P54760 16-987): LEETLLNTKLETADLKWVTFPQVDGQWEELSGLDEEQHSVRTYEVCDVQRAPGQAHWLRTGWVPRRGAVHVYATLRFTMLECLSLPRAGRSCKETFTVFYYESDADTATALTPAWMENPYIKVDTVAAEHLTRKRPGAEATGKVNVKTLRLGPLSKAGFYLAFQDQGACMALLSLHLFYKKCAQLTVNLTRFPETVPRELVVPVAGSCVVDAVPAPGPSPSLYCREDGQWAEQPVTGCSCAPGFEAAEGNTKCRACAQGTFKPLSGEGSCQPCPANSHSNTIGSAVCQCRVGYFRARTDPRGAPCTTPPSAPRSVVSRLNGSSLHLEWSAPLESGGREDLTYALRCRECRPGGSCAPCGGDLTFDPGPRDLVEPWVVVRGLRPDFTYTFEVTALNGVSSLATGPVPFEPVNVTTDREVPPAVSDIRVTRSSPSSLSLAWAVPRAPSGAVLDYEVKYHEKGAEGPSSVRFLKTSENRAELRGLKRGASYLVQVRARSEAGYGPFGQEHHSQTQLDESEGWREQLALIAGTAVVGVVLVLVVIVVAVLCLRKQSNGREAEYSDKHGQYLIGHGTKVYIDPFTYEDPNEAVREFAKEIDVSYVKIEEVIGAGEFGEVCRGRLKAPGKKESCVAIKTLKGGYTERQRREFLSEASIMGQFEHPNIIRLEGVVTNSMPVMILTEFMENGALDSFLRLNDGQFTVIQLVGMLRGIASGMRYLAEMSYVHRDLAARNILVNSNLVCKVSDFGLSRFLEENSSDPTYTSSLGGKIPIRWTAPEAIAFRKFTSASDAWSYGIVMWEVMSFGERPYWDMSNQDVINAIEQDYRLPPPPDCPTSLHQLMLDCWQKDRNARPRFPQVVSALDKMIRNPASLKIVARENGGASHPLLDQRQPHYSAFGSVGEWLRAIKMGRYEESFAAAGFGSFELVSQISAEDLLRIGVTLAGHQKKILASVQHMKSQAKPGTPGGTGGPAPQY
Excerpt: as §1

[8] = 100 micromolar inhibitor concentration, 100 is no change
[9] = 100 micromolar inhibitor, 100 = no change

Chain of MARK1 (Q9P0L2 whole entry, species assumed): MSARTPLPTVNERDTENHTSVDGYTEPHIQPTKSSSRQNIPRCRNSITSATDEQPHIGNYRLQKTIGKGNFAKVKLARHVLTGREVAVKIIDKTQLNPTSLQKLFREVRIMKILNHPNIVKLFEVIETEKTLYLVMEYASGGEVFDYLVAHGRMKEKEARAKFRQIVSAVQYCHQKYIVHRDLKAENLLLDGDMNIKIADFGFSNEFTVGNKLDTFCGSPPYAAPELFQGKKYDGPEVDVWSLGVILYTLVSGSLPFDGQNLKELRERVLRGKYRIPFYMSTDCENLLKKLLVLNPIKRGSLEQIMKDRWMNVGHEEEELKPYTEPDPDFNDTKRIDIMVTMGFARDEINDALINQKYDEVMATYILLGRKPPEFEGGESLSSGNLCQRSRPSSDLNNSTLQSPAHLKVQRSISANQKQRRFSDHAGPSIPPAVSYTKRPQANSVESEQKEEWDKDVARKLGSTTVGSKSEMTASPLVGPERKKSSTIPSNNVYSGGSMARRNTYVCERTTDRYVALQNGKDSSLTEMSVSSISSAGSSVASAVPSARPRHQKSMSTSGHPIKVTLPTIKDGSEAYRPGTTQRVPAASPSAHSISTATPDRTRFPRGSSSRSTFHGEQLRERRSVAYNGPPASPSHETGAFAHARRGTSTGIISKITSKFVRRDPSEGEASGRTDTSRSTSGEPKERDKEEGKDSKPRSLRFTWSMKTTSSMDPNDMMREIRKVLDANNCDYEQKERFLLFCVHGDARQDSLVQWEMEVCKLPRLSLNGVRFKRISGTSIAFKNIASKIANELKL
Chain of MELK (Q14680 whole entry, species assumed): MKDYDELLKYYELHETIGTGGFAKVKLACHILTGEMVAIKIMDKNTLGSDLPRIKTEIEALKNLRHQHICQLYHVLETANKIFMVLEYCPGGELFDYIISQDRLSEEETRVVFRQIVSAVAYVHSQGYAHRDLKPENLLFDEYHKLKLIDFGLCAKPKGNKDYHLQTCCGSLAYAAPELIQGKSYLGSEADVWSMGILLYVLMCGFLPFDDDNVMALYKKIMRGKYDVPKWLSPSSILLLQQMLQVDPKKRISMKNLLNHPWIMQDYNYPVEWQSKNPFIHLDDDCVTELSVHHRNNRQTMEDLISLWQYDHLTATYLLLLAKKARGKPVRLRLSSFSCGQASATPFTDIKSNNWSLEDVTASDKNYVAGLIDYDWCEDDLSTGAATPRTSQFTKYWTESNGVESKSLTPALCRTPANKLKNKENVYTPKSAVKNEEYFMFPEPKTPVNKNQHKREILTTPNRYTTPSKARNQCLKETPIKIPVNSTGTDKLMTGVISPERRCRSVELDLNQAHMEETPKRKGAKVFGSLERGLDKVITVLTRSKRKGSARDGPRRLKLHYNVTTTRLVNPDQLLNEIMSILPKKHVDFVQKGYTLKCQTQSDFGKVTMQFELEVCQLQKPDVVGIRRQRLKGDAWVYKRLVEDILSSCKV
Chain of MARK2 (Q7KZI7 whole entry, species assumed): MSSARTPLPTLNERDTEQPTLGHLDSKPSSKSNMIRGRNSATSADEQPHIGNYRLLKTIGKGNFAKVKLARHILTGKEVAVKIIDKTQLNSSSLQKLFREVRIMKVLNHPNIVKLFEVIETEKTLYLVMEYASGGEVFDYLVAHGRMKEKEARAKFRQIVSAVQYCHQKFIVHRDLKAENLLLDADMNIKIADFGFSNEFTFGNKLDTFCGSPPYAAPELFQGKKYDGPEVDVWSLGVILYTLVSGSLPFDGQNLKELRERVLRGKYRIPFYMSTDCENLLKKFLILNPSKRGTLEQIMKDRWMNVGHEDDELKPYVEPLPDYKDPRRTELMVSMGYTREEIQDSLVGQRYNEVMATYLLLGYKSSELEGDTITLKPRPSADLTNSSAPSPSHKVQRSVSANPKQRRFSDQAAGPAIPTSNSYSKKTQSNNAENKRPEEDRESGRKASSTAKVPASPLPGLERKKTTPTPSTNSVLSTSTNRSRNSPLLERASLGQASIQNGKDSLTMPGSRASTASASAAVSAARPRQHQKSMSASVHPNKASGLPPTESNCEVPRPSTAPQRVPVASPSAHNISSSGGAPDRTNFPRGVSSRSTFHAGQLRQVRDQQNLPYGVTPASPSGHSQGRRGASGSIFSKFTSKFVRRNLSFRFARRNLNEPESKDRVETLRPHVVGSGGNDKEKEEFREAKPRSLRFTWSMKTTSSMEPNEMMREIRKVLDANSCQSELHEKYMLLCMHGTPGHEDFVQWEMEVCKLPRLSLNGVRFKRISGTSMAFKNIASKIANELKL
Chain of EPH-A4 (P54764 20-986, species assumed): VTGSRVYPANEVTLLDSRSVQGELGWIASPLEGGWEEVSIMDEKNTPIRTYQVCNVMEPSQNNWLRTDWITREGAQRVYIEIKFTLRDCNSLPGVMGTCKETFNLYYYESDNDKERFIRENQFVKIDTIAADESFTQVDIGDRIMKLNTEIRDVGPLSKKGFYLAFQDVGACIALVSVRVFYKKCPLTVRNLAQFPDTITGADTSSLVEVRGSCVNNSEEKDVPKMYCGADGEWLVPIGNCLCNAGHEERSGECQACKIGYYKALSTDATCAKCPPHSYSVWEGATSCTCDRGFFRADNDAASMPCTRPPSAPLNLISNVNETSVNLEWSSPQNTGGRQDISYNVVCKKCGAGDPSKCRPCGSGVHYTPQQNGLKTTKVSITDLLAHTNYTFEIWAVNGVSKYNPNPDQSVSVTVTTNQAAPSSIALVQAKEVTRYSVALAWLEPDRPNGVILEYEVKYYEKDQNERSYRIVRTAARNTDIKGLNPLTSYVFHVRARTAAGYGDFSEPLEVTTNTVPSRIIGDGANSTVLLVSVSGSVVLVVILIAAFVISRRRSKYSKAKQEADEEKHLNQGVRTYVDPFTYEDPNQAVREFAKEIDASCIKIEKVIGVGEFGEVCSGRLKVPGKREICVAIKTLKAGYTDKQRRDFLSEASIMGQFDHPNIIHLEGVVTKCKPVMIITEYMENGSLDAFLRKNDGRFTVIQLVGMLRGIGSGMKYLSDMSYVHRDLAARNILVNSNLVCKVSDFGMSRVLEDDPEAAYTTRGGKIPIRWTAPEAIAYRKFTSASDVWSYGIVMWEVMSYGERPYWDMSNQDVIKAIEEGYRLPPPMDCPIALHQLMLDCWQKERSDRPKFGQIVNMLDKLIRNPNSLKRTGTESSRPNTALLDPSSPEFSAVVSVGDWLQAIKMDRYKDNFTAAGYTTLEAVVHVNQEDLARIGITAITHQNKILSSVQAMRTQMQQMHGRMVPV

Row | Compound | remaining activity at 100 µM [1, 8] [%] | remaining activity at 100 µM [2, 8] [%] | remaining activity at 100 µM [3, 8] [%] | remaining activity at 100 µM [4, 8] [%] | remaining activity at 100 µM [5, 8] [%] | remaining activity at 100 µM [6, 8] [%] | remaining activity at 100 µM [7, 8] [%] | residual kinase activity, CDK2-Cyclin A [1, 8] | residual kinase activity, MARK1 [2, 8] | residual kinase activity, MARK2 [3, 8] | residual kinase activity, MELK [4, 8] | residual kinase activity, EPH-A4 [5, 8] | residual kinase activity, EPH-B2 [6, 8] | residual kinase activity, EPH-B4 [7, 8] | further results
1 | CC(=O)Nc1nc2cc(O)ccc2s1 [Compound 01-66, N-(5-hydroxybenzo[d]thiazol-2-yl)acetamide] | – | – | – | – | – | – | – | – | – | – | – | – | – | – | remaining activity at 100 µM [1]: 71%; remaining activity at 100 µM [2]: 56%; remaining activity at 100 µM [3]: 63%; remaining activity at 100 µM [4]: 17%; remaining activity at 100 µM [5]: 73%; remaining activity at 100 µM [6]: 70%; remaining activity at 100 µM [7]: 83%
2 | CC(=O)Nc1nc2cc(F)ccc2s1 [Compound 03-77] | 66 | 80 | 79 | 67 | 100 | 114 | 112 | – | – | – | – | – | – | – | –
3 | CC(=O)Nc1nc2cc(C)ccc2s1 [Compound 03-76] | – | – | – | – | – | – | – | 72 | 94 | 97 | 58 | 91 | 108 | 109 | –
4 | O=C(Nc1nc2ccc(O)cc2s1)c1cccnc1 [Compound 08-44] | – | – | – | – | – | – | – | 72 | 83 | 74 | 29 | 89 | 91 | 100 | –
5 | O=C(Nc1nc2ccc(O)cc2s1)c1ccccn1 [Compound 03-12] | – | – | – | – | – | – | – | 87 | 89 | 90 | 31 | 78 | 103 | 84 | –
6 | CC(=O)Nc1nc2ccccc2s1 [Compound 03-32] | – | – | – | – | – | – | – | 76 | 77 | 88 | 83 | 111 | 116 | 99 | –
7 | CC(=O)Nc1nc2cc(C(F)(F)F)ccc2s1 [Compound 03-73] | 96 | 88 | 99 | 91 | 103 | 98 | 101 | – | – | – | – | – | – | – | –
8 | CC(=O)Nc1cccc(NC(=O)c2nc3ccc(O)cc3s2)c1 [Compound 03-07, N-(3-acetamidophenyl)-6-hydroxybenzo[d]thiazole-2-carboxamide] | – | – | – | – | – | – | – | – | – | – | – | – | – | – | remaining activity at 100 µM [1, 9]: 99%; remaining activity at 100 µM [2, 9]: 106%; remaining activity at 100 µM [3, 9]: 73%; remaining activity at 100 µM [4, 9]: 12%; remaining activity at 100 µM [5, 9]: 95%; remaining activity at 100 µM [6, 9]: 110%; remaining activity at 100 µM [7, 9]: 100%
9 | O=C(Nc1nc2cc(O)ccc2s1)c1cccnc1 [Compound 03-33] | – | – | – | – | – | – | – | 92 | 103 | 102 | 29 | 92 | 99 | 106 | –
10 | O=C(Nc1nc2ccc(O)cc2s1)c1ccccc1 [Compound 03-60] | – | – | – | – | – | – | – | 78 | 96 | 65 | 18 | 87 | 78 | 110 | –
11 | CC(=O)Nc1nc2ccc(C(F)(F)F)cc2s1 [Compound 01-90] | 22 | 90 | 74 | 49 | 45 | 38 | 55 | – | – | – | – | – | – | – | –
12 | O=C(Nc1nc2ccc(O)cc2s1)c1ccncc1 [Compound 08-42] | – | – | – | – | – | – | – | 72 | 75 | 67 | 22 | 92 | 99 | 92 | –
13 | O=C(Nc1nc2cc(O)ccc2s1)c1ccccn1 [Compound 03-13] | – | – | – | – | – | – | – | 91 | 99 | 84 | 22 | 89 | 72 | 88 | –
14 | COc1ccc2sc(NC(C)=O)nc2c1 [Compound 03-21] | 93 | 98 | 103 | 44 | 98 | 96 | 98 | – | – | – | – | – | – | – | –
15 | CC(=O)Nc1nc2ccc(C#N)cc2s1 [Compound 01-94] | 11 | 60 | 53 | 34 | 62 | 42 | 62 | – | – | – | – | – | – | – | –
16 | CC(=O)Nc1nc2ccc(O)cc2s1 [Compound 01-71] | 30 | 33 | 54 | 24 | 77 | 59 | 98 | – | – | – | – | – | – | – | –
